pIC50: −log10 of the molar value. Starred links: 1 amine or outer side, 2 acyl side, 3 side chain; linkers in the order of their positions; H or OH if unused. Positions of bridges follow the written chain, without caps; N, C: chain ends. Non-standard residues stand in square brackets, D forms with d. Residues, ends and D or L forms follow the SMILES beside them. *: point of attachment. hPhe(3-Cl-4-CF3) = N[C@@H](CCc1ccc(C(F)(F)F)c(Cl)c1)C(=O)O; hPhe(3-F,4-CF3) = N[C@@H](CCc1ccc(C(F)(F)F)c(F)c1)C(=O)O; hPhe(4-CF3) = N[C@@H](CCc1ccc(C(F)(F)F)cc1)C(=O)O; NMePhe(4-CN) = CN[C@@H](Cc1ccc(C#N)cc1)C(=O)O; NMePhe(4-Cl) = CN[C@@H](Cc1ccc(Cl)cc1)C(=O)O; NMePhe(4-Me) = CN[C@@H](Cc1ccc(C)cc1)C(=O)O; NMedβ3hAla = C[C@H](CC(=O)[*:2])N(C)[*:1]; Phe(3-I) = N[C@@H](Cc1cccc(I)c1)C(=O)O; Pro(4,4-F2) = O=C(O)[C@@H]1CC(F)(F)CN1; NMehPhe = CN[C@@H](CCc1ccccc1)C(=O)O; NMeCha = CN[C@@H](CC1CCCCC1)C(=O)O; NMeGly(cPr) = CN[C@H](C(=O)O)C1CC1; NMeF = CN[C@@H](Cc1ccccc1)C(=O)O; NMeI = CC[C@H](C)[C@H](NC)C(=O)O; NMeβAla = CN(CCC(=O)[*:2])[*:1]; NMeD = CN[C@@H](CC(=O)O)C(=O)O; NMeL = CN[C@@H](CC(C)C)C(=O)O; NMeV = CN[C@H](C(=O)O)C(C)C; d(β3hA) = C[C@@H](N)CC(=O)O; NMeA = CN[C@@H](C)C(=O)O; NMeAib = CNC(C)(C)C(=O)O; Nle = CCCC[C@H](N)C(=O)O; Piperidide = C1CCN(*)CC1; Pyrrolidide = C1CCN(*)C1; Ac5c = NC1(C(=O)O)CCCC1; Aze = O=C(O)[C@@H]1CCN1; Ac4c = NC1(C(=O)O)CCC1; Sar = CNCC(=O)O
What follows are compounds tested against T1, Kras and SOS1 (biotin-tagged human Kras loaded with GDP, His-tagged human SOS1) (Homo sapiens, UniProt P01116, G12D) (assay: Protein-protein interaction inhibition between Kras and SOS1 (KrasGl2D-SOS PPI) using AlphaScreen). Details: AlphaScreen; biotin-tagged human Kras loaded with GDP, His-tagged human SOS1; read-out: KRAS G12D-SOS PPI IC50.
T1 construct: made in house; host or cells: E. coli (stated for Kras only)
T1 sequence (P01116 1-188 isoform P01116-2 G12D): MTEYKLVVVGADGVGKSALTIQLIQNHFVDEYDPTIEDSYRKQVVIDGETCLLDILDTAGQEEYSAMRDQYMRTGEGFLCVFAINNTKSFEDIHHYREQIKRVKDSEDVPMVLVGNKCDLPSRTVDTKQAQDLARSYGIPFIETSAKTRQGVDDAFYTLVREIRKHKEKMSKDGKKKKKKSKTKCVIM
Format: binding
How it was run: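 Energy transfer from nickel-chelate donor beads bound to His-SOS1 to streptavidin acceptor beads bound to biotin-Kras, expressed in E. coli and loaded with GDP after purification, was monitored. Donors were excited at 680 nm; singlet oxygen reaching acceptors gave emission read at 520-620 nm.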
`CC[C@H](C)[C@@H]1NC(=O)[C@H](CC(C)C)N(C)C(=O)C[C@@H](C(=O)N2CCCCC2)N(C)C(=O)[C@H](C(C)C)N(C)C(=O)C2(CCCC2)NC(=O)[C@@H]2CCCN2C(=O)[C@H](CCc2ccc(C(F)(F)F)c(Cl)c2)NC(=O)CN(C)C(=O)[C@H](Cc2ccc(C#N)cc2)N(C)C(=O)CN(C)C(=O)CN(C)C1=O` [Compound 867] ([NMeL]I[Sar][Sar][NMePhe(4-CN)][Sar][hPhe(3-Cl-4-CF3)]P[Ac5c][NMeV][NMeD]-Piperidide; lactam N-11) showed a pIC50 of 8.47. For `CC[C@H](C)[C@@H]1NC(=O)[C@H](CC(C)C)N(C)C(=O)C[C@@H](C)N(C)C(=O)[C@H]([C@@H](C)CC)N(C)C(=O)C2(CCC2)NC(=O)[C@@H]2CC(F)(F)CN2C(=O)[C@H](CCc2ccc(C(F)(F)F)c(Cl)c2)NC(=O)CN(C)C(=O)[C@H](Cc2ccc(C)cc2)N(C)C(=O)CN(C)C(=O)CN(C)C1=O` [Compound 869] (cyclo([Ac4c][NMeI][NMedβ3hAla][NMeL]I[Sar][Sar][NMePhe(4-Me)][Sar][hPhe(3-Cl-4-CF3)][Pro(4,4-F2)])), the pIC50 was 8.01. `CC[C@H](C)[C@@H]1NC(=O)[C@H](C)N(C)C(=O)C[C@@H](C)NC(=O)[C@H](CC(C)C)N(C)C(=O)[C@H](Cc2ccccc2)N(C)C(=O)[C@@H]2CC(F)(F)CN2C(=O)[C@H](CCc2ccc(C(F)(F)F)cc2)NC(=O)CN(C)C(=O)[C@H](Cc2ccc(Cl)cc2)N(C)C(=O)CN(C)C(=O)CN(C)C1=O` [Compound 870] (cyclo(I[Sar][Sar][NMePhe(4-Cl)][Sar][hPhe(4-CF3)][Pro(4,4-F2)][NMeF][NMeL][d(β3hA)][NMeA])) showed a pIC50 of 7.82. `CC[C@H](C)[C@@H]1NC(=O)[C@H](CC(C)C)N(C)C(=O)C[C@@H](C)N(C)C(=O)[C@H](C2CC2)N(C)C(=O)C2(CCCC2)NC(=O)[C@@H]2CCCN2C(=O)[C@H](CCc2ccc(C(F)(F)F)c(Cl)c2)NC(=O)CN(C)C(=O)[C@H](CC2CCCCC2)N(C)C(=O)CN(C)C(=O)CN(C)C1=O` [Compound 874] (cyclo([Ac5c][NMeGly(cPr)][NMedβ3hAla][NMeL]I[Sar][Sar][NMeCha][Sar][hPhe(3-Cl-4-CF3)]P)) gave a pIC50 of 7.60. Work on `CCCC[C@@H]1NC(=O)[C@H](Cc2cccc(I)c2)NC(=O)CN(C)C(=O)[C@H](Cc2ccc(Cl)cc2)N(C)C(=O)CN(C)C(=O)CN(C)C(=O)[C@H]([C@@H](C)CC)NC(=O)[C@H](CC(C)C)N(C)C(=O)C[C@@H](C(=O)N2CCCCC2)N(C)C(=O)[C@H](CC(C)C)NC(=O)[C@H](Cc2ccc(C)cc2)N(C)C1=O` [Compound 876] ([NMeL]I[Sar][Sar][NMePhe(4-Cl)][Sar][Phe(3-I)][Nle][NMePhe(4-Me)]L[NMeD]-Piperidide; lactam N-11) yielded a pIC50 of 7.74. In the case of `CC[C@H](C)[C@@H]1NC(=O)[C@H](C)N(C)C(=O)C[C@@H](C(=O)N2CCCC2)NC(=O)[C@H](CC(C)C)N(C)C(=O)[C@H](CCc2ccccc2)N(C)C(=O)[C@H](CC(C)C)NC(=O)[C@H](CCc2ccc(C(F)(F)F)cc2)NC(=O)CN(C)C(=O)[C@H](Cc2ccc(Cl)cc2)N(C)C(=O)CN(C)C(=O)CN(C)C1=O` [Compound 878] ([NMeA]I[Sar][Sar][NMePhe(4-Cl)][Sar][hPhe(4-CF3)]L[NMehPhe][NMeL]D-Pyrrolidide; lactam N-11), the pIC50 was 6.49. For `CC[C@H](C)[C@@H]1NC(=O)[C@H](CC(C)C)N(C)C(=O)CCN(C)C(=O)[C@H](C(C)C)N(C)C(=O)C2(CCCC2)NC(=O)[C@@H]2CCCN2C(=O)[C@H](CCc2ccc(C(F)(F)F)c(F)c2)NC(=O)CN(C)C(=O)[C@H](CC2CCCCC2)N(C)C(=O)CN(C)C(=O)CN(C)C1=O` [Compound 879] (cyclo([Ac5c][NMeV][NMeβAla][NMeL]I[Sar][Sar][NMeCha][Sar][hPhe(3-F,4-CF3)]P)), the pIC50 was 7.44. Compound `CC[C@H](C)[C@@H]1NC(=O)[C@H](C)N(C)C(=O)C[C@@H](C(=O)N2CCCC2)NC(=O)[C@H](CC(C)C)N(C)C(=O)[C@H](Cc2ccccc2)N(C)C(=O)[C@H](CC(C)C)NC(=O)[C@H](Cc2cccc(I)c2)NC(=O)CN(C)C(=O)[C@H](Cc2ccc(Cl)cc2)N(C)C(=O)CN(C)C(=O)CN(C)C1=O` [Compound 884] ([NMeA]I[Sar][Sar][NMePhe(4-Cl)][Sar][Phe(3-I)]L[NMeF][NMeL]D-Pyrrolidide; lactam N-11) has a pIC50 of 7.20. In the case of `CC[C@H](C)[C@@H]1NC(=O)[C@H](CC(C)C)N(C)C(=O)C[C@@H](C)N(C)C(=O)[C@H](CC(C)C)NC(=O)C(C)(C)N(C)C(=O)[C@H](CC(C)C)NC(=O)[C@H](CCc2ccc(C(F)(F)F)c(Cl)c2)NC(=O)CN(C)C(=O)[C@H](CC2CCCCC2)N(C)C(=O)[C@@H]2CCN2C(=O)[C@H](C)N(C)C1=O` [Compound 886] (cyclo([Aze][NMeCha][Sar][hPhe(3-Cl-4-CF3)]L[NMeAib]L[NMedβ3hAla][NMeL]I[NMeA])), the pIC50 was 7.00.
